Assay results published in patent US20260055083A1, “APOL1 INHIBITORS AND METHODS OF USE” (Maze Therapeutics, Inc., priority 2022, published 2026).

Columns and labels:
[1] = molecular target: T1, APOL1 G2 (Homo sapiens, UniProt O14791, DEL388-389); experiment: APOL1 G2 FLIPR calcium influx assay (HEK T-REx/GCaMP6f/APOL1 G2 K6.3 cells); assay type: cell-based; details: HEK293 clone expressing GCaMP6f, doxycycline-induced APOL1 G2; prevention of calcium influx; geometric mean of at least 2 assay runs
T1 construct: expressed in transfected cells; host or cells: HEK293/T-REx APOL1 G2 clone #2, doxycycline-inducible
T1 sequence (O14791 with tags, fused parts or gaps DEL388-389): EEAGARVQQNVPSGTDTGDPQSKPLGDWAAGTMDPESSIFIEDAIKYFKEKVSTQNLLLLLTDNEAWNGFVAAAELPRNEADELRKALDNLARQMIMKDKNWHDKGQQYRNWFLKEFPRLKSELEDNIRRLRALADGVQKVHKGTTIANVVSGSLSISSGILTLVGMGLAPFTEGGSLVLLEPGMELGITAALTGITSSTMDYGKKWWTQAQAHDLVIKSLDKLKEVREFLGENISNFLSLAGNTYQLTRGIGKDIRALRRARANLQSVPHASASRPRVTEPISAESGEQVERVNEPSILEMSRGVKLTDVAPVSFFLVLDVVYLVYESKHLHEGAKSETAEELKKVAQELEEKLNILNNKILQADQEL
Procedure: A HEK293 clonal cell line was generated to stably express GCaMP6f, a genetically encoded calcium indicator, and inducibly express APOL1 G2 (HEK T-REx/GCaMP6f/APOL1 G2 K6.3). Cells were maintained in the following standard complete medium: DMEM with 4.5 g/L glucose and sodium pyruvate (BioWhittaker, Lonza, BE12-614F), supplemented with 10% FBS Performance Plus (Gibco, 16000044), 1% penicillin-streptomycin (BioWhittaker, DE17-602E), 2 mM ultraglutamine-1 (BioWhittaker cat. BE 17-605/U1), 50 μg/mL Zeocin (InvivoGen, ant-zn), 2.5 μg/mL Blasticidin (InvivoGen, ant-bl-5), and 25 μg/mL Hygromycin (InvivoGen, ant-hg). Standard propagation conditions consisted of plating 9×10^6, 4×10^6, 2×10^6 cells in a T225 flasks to be processed after 2, 3, or 4 days, respectively.
A source plate was generated containing 20 serially diluted compounds in DMSO (duplicate 8-point dose response). Next, 0.8 μL of compounds were transferred from the source plate to a destination plate prefilled with 79.2 μL of Ca^2+ free Tyrode's buffer (130 mM NaCl, 5 mM KCl, 1 mM MgCl2, 5 mM NaHCO3, 20 mM HEPES at pH 7.4). The destination plate was placed on a plate shaker (5 seconds at 2000 rpm) to mix. […] All transfer and mixing steps were conducted with an CyBi®-Well dispenser.
Cells were split by gently washing with DPBS (Euroclone, ECB4004L), followed by a 5-minute incubation (humidified, 37° C. with 5% CO2) with trypsin-EDTA solution (Euroclone, ECB3052D). Detached cells were diluted with standard complete medium without selective agents, counted, and plated in a 384 MTP microplate (GR4332CPL, Twin Helix) (10,000 cells/well in 25 μl/well) using a MATRIX WellMate dispenser. Plates were placed into a humidified incubator (37° C. with 5% CO2) overnight. The following day, 20 μL of doxycycline (Sigma, D9891) at 20 ng/mL in standard complete medium was added to cells with a CyBi®Drop dispenser to induce APOL1 G2 expression. After a 6-hour incubation (humidified, 37° C. with 5% CO2), cells were washed 3 times with Ca^2+ free Tyrode's Buffer (130 mM NaCl, 5 mM KCl, 1 mM MgCl2, 5 mM NaHCO3, 20 mM HEPES at pH 7.4) using a BIOTEK Microplate washer, such that 10 μL of buffer remained in each well after the final wash. Assay plates were then stored at room temperature for 10 minutes. Next, 10 μL of diluted compounds were transferred to the assay plate from the 2× compound plate using a CyBi®-Well dispenser. Compound incubation was then carried out at room temperature for 10 minutes. The assay plate was transferred to the […] and 20 μL of 10 mM Ca^2+ (final concentration=5 mM) Tyrode's buffer was injected.
Table B1 below summarizes the data from this experiment. Unless otherwise specified, AC50 and values are reported as the geometric mean of at least 2 assay runs on separate days. Each run represents the average of a technical replicate, where each compound was assayed twice in the same plate. A superscript t symbol indicates a value from the average of a technical replicate from a single assay run, where each compound was assayed twice in the same plate.
The AC50 values in Table B1 below reflect the compound's ability to prevent calcium influx by inhibiting APOL1. […] Compounds in Table B1 are referred to by the corresponding Compound Number in Table 1, which is also referred to in the synthetic examples. When one or more of the numbered compounds are identified by stereochemistry (for example, (R)- or (S)-), the specific stereoisomer for which data is provided in Table B1 may be identified by the elution order of such compound as described in the synthetic examples. To illustrate, Compound 2 is the first-eluting enantiomer of step 4 of Example 1 and Compound 3 is the second-eluting enantiomer of step 4 of Example 1. Further, by way of illustration, Compound 27 is the first-eluting enantiomeric mixture in step 4 of Example 7 and Compound 28 is the second-eluting enantiomeric mixture in step 4 of Example 7. […]

[2] = molecular target: T1, APOL1 G2; experiment: APOL1 G2 HEK293 rescue of cell death caused by overexpression of APOL1 (CellTiter-Glo); assay type: cell-based; details: HEK293/T-REx APOL1 G2 clone #2, doxycycline induction, 17 hours, CellTiter-Glo luminescence; reversal of cell death; geometric mean of at least 2 assay runs
Procedure: A HEK293 clonal cell line overexpressing APOL1 G2 (HEK293/T-REx APOL1 G2/clone #2) was maintained in 1×DMEM-GlutaMax (Gibco, 10569-010) media with 10% tetracycline-free FBS (Takara Bio USA, 631101), 5 μg/mL Blasticidin (Gibco, A1113903), and 100 μg/mL Zeocin (Invitrogen, R25001) in T75 flasks. In preparation for the assay, this media was aspirated and 2 mL of prewarmed TrypLE Express (Gibco, 12605-010) was added to a flask to detach cells. The flask was then incubated (humidified, 37° C. with 5% CO2) for 3-5 minutes. Afterwards, 8 mL of prewarmed cell assay media (1×DMEM-GlutaMax media with 10% tetracycline-free FBS) was added to the trypsinized cells. The suspension was gently mixed, and cells were counted using a Countess Cell Counting Chamber (Invitrogen). The suspension was diluted using cell assay media to generate a working stock solution (166,667 cells/mL). Using a MultiDrop Combi (Thermo Electron Corp), 30 μL (final cell density=5,000 cells/well) of the working stock solution was dispensed into each well of white 384-well assay ready plates (Nunc™, 164610) containing 6 ng/mL doxycycline, to induce APOL1 expression, and compound. All compounds were plated in a duplicate 8-point dilution series that consisted of 3-fold stepwise dilutions (0.5% DMSO final). Assay plates were incubated (humidified, 37° C. with 5% CO2) for 17 hours. After the incubation, the plates were equilibrated at room temperature for 1 hour. Next, 15 μl of CellTiter-Glo® reagent (Promega, G7570) was added to each well using a MultiDrop Combi. Plates were placed on an orbital shaker (500 rpm) for 5 minutes to induce cell lysis and then incubated at room temperature for 10 minutes. Luminescence was measured on an Envision plate reader. Collaborative Drug Discovery software was utilized for graphing data. Plots were generated using a four parameter logistic curve fit.
Table B2 below provides the results from this experiment. Unless otherwise specified, EC50 values are reported as the geometric mean of at least 2 assay runs on separate days. Each run represents the average of a technical replicate, where each compound was assayed twice in the same plate. A superscript t symbol indicates a value from the average of a technical replicate from a single assay run, where each compound was assayed twice in the same plate. Compounds in Table B2 are referred to by the corresponding Compound Number in Table 1, which is also referred to in the synthetic examples. When one or more of the numbered compounds are identified by stereochemistry (for example, (R)- or (S)-), the specific stereoisomer for which data is provided in Table B2 may be identified by the elution order of such compound as described in the synthetic examples. To illustrate, Compound 2 is the first-eluting enantiomer of step 4 of Example 1 and Compound 3 is the second-eluting enantiomer of step 4 of Example 1. Further, by way of illustration, Compound 27 is the first-eluting enantiomeric mixture in step 4 of Example 7 and Compound 28 is the second-eluting enantiomeric mixture in step 4 of Example 7. Then, Compound 27 is separated into Compound 29 (the first-eluting enantiomer) and Compound 30 (the second-eluting enantiomer) in Example 8, and Compound 28 is separated into Compound 31 (the first-eluting enantiomer) and Compound 32 (the second-eluting enantiomer) in Example 8. Absolute stereochemistry of such compounds may be identified by methods known in the art.
Rescue EC50 values reported in Table B2 below represent the half-maximal effective concentration for reversal of cell death caused by overexpression of APOL1.

Row | AC50 [1] | SMILES | EC50 [2]
1 | 839 nM | C[C@@H]1C[C@H](COc2ccc(S(C)(=O)=O)cc2)CN1C1CCc2ccc(Cl)cc2C1 (single isomer, unassigned) [Compound 6, (2R,4S)-1-[(2R or 2S)-7-chloro-1,2,3,4-tetrahydronaphthalen-2-yl]-4-[(4-methanesulfonylphenoxy)methyl]-2-methylpyrrolidine] | 661 nM
2 | 1540 nM | C[C@@H]1C[C@H](COc2ccc(S(C)(=O)=O)cc2)CN1C1CCc2c(C#N)cc(Cl)cc2C1 (single isomer, unassigned) [Compound 7, (6R or 6S)-3-chloro-6-[(2R,4S)-4-[(4-methanesulfonylphenoxy)methyl]-2-methylpyrrolidin-1-yl]-5,6,7,8-tetrahydronaphthalene-1-carbonitrile] | 195 nM
3 | 1070 nM | C[C@@H]1C[C@H](COc2ccc(S(C)(=O)=O)cc2)CN1C1CCc2c(C#N)cc(Cl)cc2C1 (single isomer, unassigned) [Compound 8, (6R or 6S)-3-chloro-6-[(2R,4S)-4-[(4-methanesulfonylphenoxy)methyl]-2-methylpyrrolidin-1-yl]-5,6,7,8-tetrahydronaphthalene-1-carbonitrile] | 150 nM
4 | 1280 nM | C[C@@H]1C[C@H](COc2ccc(S(C)(=O)=O)cc2)CN1C1CCc2c(C#N)cc(Cl)cc2C1 (single isomer, unassigned) [Compound 9, (6S or 6R)-3-chloro-6-[(2R,4S)-4-[(4-methanesulfonylphenoxy)methyl]-2-methylpyrrolidin-1-yl]-5,6,7,8-tetrahydronaphthalene-1-carbonitrile] | 516 nM
5 | 1020 nM | CC(Cc1cc(Cl)cc(C#N)c1)N1C[C@@H](COc2ccc(S(C)(=O)=O)cc2)C[C@H]1C (single isomer, unassigned) [Compound 10, 3-chloro-5-[(2S or 2R)-2-[(2R,4S)-4-[(4-methanesulfonylphenoxy)methyl]-2-methylpyrrolidin-1-yl]propyl]benzonitrile] | 744 nM
6 | 1130 nM | CC(Cc1cc(Cl)cc(C#N)c1)N1C[C@@H](COc2ccc(S(C)(=O)=O)cc2)C[C@H]1C (single isomer, unassigned) [Compound 11, 3-chloro-5-[(2R or 2S)-2-[(2R,4S)-4-[(4-methanesulfonylphenoxy)methyl]-2-methylpyrrolidin-1-yl]propyl]benzonitrile] | 137 nM
7 | 1750 nM | C[C@@H]1CN(C2CCc3ccc(Cl)cc3C2)C[C@H]1COc1ccc(S(C)(=O)=O)cc1 (single isomer, unassigned) [Compound 15, (3S,4S)-1-[(2S or 2R)-7-chloro-1,2,3,4-tetrahydronaphthalen-2-yl]-3-[(4-methanesulfonylphenoxy)methyl]-4-methylpyrrolidine] | 1830 nM
8 | 1080 nM | C[C@@H]1CN(C2CCc3ccc(Cl)cc3C2)C[C@H]1COc1ccc(S(C)(=O)=O)cc1 (single isomer, unassigned) [Compound 16, (3S,4S)-1-[(2R or 2S)-7-chloro-1,2,3,4-tetrahydronaphthalen-2-yl]-3-[(4-methanesulfonylphenoxy)methyl]-4-methylpyrrolidine] | 712 nM
9 | 412 nM | CC(Cc1cc(Cl)cc(C#N)c1)N1C[C@@H](COc2ccc(S(C)(=O)=O)cc2)[C@H](C)C1 (single isomer, unassigned) [Compound 18, 3-chloro-5-[(2S or 2R)-2-[(3S,4S)-3-[(4-methanesulfonylphenoxy)methyl]-4-methylpyrrolidin-1-yl]propyl]benzonitrile] | 262 nM
10 | 444 nM | CC(Cc1cc(Cl)cc(C#N)c1)N1C[C@@H](COc2ccc(S(C)(=O)=O)cc2)[C@H](C)C1 (single isomer, unassigned) [Compound 19, 3-chloro-5-[(2R or 2S)-2-[(3S,4S)-3-[(4-methanesulfonylphenoxy)methyl]-4-methylpyrrolidin-1-yl]propyl]benzonitrile] | 640 nM
11 | 185 nM | Cc1cc(OC[C@H]2C[C@@H](C)N(CCc3cccc(C#N)c3)C2)cnc1S(C)(=O)=O (single isomer, unassigned) [Compound 30] | 38.4 nM
